Test results published in ChEMBL document CHEMBL3046120, “Synthesis and root growth-inhibitory activity of 2- and 3-(haloacetylamino)-3-(2-furyl)propanoic acids” (2003).

The compounds below were run on Brassica rapa subsp. oleifera (assay: Herbicidal activity against Brassica rapa subsp. oleifera seedling assessed as root growth inhibition at 1 x10 ' -4 M measured after 7 days). Details: 168 h, read-out: GI.
Type: functional

In order of falling inhibition of growth at 100 µM:
1. O=C(O)COc1ccc(Cl)cc1Cl [2,4-DICHLOROPHENOXYACETIC ACID]  100%
2. O=C(CF)NC(Cc1ccco1)C(=O)O (racemic)  90%
3. O=C(O)CC(NC(=O)CCl)c1ccco1 (racemic)  55%
4. O=C(CCl)NC(Cc1ccco1)C(=O)O (racemic)  51%
5. O=C(O)CC(NC(=O)CF)c1ccco1 (racemic)  43%
6. CC(=O)NC(CC(=O)O)c1ccco1 (racemic)  22%
7. CC(=O)NC(Cc1ccco1)C(=O)O (racemic)  19%
8. NC(CC(=O)O)c1ccco1 (racemic)  16%
9. NC(Cc1ccco1)C(=O)O (racemic)  7%
